Data on 13 compounds can be found in US11739098B2 (BRISTOL-MYERS SQUIBB COMPANY, priority 2017, dated 2023).

What all share (assay type): cell-based
One assay has as its target T1, human TLR7 (Homo sapiens, UniProt Q9NYK1).
T1 construct: host or cells: HEK-Blue cells (HEK293-derived reporter line)
T1 sequence (Q9NYK1 27-1049): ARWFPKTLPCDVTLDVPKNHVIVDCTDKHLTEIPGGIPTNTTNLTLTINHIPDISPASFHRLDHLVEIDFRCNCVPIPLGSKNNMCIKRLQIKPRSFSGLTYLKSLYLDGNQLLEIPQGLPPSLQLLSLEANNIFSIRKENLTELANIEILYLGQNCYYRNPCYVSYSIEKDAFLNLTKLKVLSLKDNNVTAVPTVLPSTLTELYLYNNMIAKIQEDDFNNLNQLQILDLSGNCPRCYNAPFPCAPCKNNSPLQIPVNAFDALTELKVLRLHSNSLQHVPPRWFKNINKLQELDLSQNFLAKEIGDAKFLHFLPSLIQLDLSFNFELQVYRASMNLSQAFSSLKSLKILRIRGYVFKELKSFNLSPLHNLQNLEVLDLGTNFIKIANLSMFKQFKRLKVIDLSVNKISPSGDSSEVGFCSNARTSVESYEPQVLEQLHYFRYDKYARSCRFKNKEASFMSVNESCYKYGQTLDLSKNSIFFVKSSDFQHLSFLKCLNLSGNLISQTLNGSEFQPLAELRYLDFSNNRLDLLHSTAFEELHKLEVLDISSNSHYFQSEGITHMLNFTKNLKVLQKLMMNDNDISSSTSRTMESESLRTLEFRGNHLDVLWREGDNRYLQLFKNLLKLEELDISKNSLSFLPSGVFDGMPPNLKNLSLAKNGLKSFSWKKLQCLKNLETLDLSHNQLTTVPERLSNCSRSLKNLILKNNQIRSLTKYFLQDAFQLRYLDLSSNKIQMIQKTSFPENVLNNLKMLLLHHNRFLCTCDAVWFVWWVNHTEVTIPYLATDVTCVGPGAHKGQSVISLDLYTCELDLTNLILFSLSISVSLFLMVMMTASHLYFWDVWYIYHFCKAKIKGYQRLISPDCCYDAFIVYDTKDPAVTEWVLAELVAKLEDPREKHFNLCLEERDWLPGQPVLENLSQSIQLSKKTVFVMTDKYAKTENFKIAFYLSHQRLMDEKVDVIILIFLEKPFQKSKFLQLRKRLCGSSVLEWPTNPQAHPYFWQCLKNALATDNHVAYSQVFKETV
As to the kind of experiment: TLR7 inhibition reporter assay (HEK-Blue cells, SEAP reporter, gardiquimod stimulation). To be noted: HEK-Blue cells overexpressing human TLR7, SEAP reporter, gardiquimod 7.5 μM. In short, it runs like this:
(§1)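 HEK-Blue cells overexpressing the receptor, with NF-κB/AP-1-driven SEAP, were pre-treated 30 min at room temperature with compound (0.05 nM–50 μM), then stimulated with gardiquimod 7.5 μM (TLR7), R848 15.9 μM (TLR8) or ODN2006 5 nM (TLR9). SEAP was read after 22 h at 37 °C as percent inhibition.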
In general terms: In a reporter assay the amount or activity of a reporter protein is the signal.

The target of another assay is T2, human TLR9 (Homo sapiens, UniProt Q9NR96).
T2 construct: host or cells: HEK-Blue cells (HEK293-derived reporter line)
T2 sequence (Q9NR96 26-1032): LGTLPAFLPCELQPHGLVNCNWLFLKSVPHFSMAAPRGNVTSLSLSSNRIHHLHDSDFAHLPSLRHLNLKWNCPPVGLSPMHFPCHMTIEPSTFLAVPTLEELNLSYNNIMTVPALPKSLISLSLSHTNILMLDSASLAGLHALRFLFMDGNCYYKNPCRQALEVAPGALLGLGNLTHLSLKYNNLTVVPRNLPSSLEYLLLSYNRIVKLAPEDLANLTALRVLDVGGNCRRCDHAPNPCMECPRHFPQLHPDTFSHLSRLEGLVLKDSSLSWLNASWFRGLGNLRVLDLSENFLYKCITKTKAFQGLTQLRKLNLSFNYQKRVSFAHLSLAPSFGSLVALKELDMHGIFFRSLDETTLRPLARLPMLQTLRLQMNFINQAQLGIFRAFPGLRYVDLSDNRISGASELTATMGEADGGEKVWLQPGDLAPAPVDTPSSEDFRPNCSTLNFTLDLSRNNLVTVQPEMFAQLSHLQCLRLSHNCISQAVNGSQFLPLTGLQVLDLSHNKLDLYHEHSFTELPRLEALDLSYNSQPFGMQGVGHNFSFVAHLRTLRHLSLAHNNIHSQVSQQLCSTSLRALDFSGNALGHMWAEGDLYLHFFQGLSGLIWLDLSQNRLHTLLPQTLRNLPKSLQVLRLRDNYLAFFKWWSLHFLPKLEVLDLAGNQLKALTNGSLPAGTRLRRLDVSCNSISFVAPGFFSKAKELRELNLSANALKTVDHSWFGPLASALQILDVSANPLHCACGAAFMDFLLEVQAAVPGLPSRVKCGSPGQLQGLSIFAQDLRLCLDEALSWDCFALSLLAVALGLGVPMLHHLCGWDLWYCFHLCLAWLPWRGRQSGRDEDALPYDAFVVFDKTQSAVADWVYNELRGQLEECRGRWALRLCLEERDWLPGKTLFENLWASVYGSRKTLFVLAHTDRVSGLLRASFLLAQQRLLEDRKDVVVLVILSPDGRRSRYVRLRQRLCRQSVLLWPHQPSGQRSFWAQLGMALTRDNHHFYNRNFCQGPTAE
As to the kind of experiment: TLR9 inhibition reporter assay (HEK-Blue cells, SEAP reporter, ODN2006 stimulation). Conditions: HEK-Blue cells overexpressing human TLR9, SEAP reporter, ODN2006 5 nM. In short, it runs like this:
as §1

In a further assay the target is T3, human TLR8 (Homo sapiens, UniProt Q9NR97).
T3 construct: host or cells: HEK-Blue cells (HEK293-derived reporter line)
T3 sequence (Q9NR97 27-1041): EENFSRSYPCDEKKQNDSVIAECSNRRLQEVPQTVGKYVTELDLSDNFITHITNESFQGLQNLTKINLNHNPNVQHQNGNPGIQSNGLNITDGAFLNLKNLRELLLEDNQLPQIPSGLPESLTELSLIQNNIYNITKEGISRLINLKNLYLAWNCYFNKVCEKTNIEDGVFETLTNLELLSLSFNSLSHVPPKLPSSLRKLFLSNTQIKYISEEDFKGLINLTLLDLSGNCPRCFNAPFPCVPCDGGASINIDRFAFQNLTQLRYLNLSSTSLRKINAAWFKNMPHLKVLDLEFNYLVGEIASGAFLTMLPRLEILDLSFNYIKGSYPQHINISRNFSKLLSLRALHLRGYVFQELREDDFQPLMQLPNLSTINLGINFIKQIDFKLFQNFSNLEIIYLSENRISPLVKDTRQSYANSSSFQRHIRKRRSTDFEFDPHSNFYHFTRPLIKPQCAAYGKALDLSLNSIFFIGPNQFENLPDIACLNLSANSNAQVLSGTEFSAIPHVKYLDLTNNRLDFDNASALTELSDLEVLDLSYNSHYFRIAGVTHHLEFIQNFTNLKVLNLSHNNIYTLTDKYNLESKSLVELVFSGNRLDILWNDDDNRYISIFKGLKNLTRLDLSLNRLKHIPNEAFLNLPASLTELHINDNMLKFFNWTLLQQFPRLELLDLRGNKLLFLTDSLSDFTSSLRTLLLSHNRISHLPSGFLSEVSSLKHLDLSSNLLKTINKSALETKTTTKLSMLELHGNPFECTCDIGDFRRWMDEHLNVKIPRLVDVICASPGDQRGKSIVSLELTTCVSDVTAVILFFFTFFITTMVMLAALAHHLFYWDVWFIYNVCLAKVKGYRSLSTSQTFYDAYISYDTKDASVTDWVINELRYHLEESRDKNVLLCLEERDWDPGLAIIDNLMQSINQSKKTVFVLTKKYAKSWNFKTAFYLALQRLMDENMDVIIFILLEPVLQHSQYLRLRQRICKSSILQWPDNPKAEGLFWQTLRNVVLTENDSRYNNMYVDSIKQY
As to the kind of experiment: TLR8 inhibition reporter assay (HEK-Blue cells, SEAP reporter, R848 stimulation). Conditions: HEK-Blue cells overexpressing human TLR8, SEAP reporter, R848 15.9 μM. In short, it runs like this: as §1

As a reminder, the IC50 is the concentration that gives 50% inhibition. Turning to `Cc1c(-c2ccnc3[nH]ccc23)[nH]c2ccc(C3CCN(C4CCN(CC(C)C)CC4)CC3)cc12` [Example 812, 4-(5-(1′-isobutyl-[1,4′-bipiperidin]-4-yl)-3-methyl-1H-indol-2-yl)-1H-pyrrolo[2,3-b]pyridine], the IC50 on human TLR7, against human TLR9 and on human TLR8 was less than 100 nM in each case.
`COCCN1CCC(c2ccc3[nH]c(-c4ccc(C#N)c5ncccc45)c(C(C)C)c3c2)CC1` [Example 778, 5-(3-isopropyl-5-(1-(2-methoxyethyl)piperidin-4-yl)-1H-indol-2-yl)quinoline-8-carbonitrile]: the values for the IC50 at human TLR7, against human TLR9 and against human TLR8 were less than 100 nM, 1000 to 50000 nM and less than 100 nM, respectively.
Take `Cc1cc(-c2[nH]c3ccc(C4CCN(CC(=O)N(C)C)CC4)cc3c2C(C)C)cn2c(C#N)cnc12` [Example 430, 2-(4-(2-(3-cyano-8-methylimidazo [1,2-a]pyridin-6-yl)-3-isopropyl-1H-indol-5-yl)piperidin-1-yl)-N,N-dimethylacetamide]: the IC50 against human TLR7 is 100 to 1000 nM; against human TLR9, 1000 to 50000 nM; against human TLR8, less than 100 nM.
Taken in the same sequence, the figures for `CCc1c(-c2ccc3onc(N)c3c2)[nH]c2ccc(C3CCNCC3)cc12` [Example 95, 5-(3-ethyl-5-(piperidin-4-yl)-1H-indol-2-yl)benzo[d]isoxazol-3-amine] were 1000 to 50000 nM, 1000 to 50000 nM and 100 to 1000 nM.
Taken in the same sequence, the figures for `Cc1c(-c2ccnc3[nH]ncc23)[nH]c2ccc(C3CCNCC3)cc12` [Example 231, 4-(3-methyl-5-(piperidin-4-yl)-1H-indol-2-yl)-1H-pyrazolo[3,4-b]pyridine] were 100 to 1000 nM, 1000 to 50000 nM and 100 to 1000 nM.
For `CC(C)c1c(-c2ccnc3[nH]ncc23)[nH]c2ccc(C3CCN(Cc4c[nH]cn4)CC3)cc12` [Example 870, 4-(5-(1-((1H-imidazol-4-yl)methyl)piperidin-4-yl)-3-isopropyl-1H-indol-2-yl)-1H-pyrazolo[3,4-b]pyridine], in that order: less than 100 nM, 100 to 1000 nM and less than 100 nM.
Regarding `CC(C)c1c(-c2cn(C)c3ncncc23)[nH]c2ccc(C3CCN(C4CCOCC4)CC3)cc12` [Example 688, 5-(3-isopropyl-5-(1-(tetrahydro-2H-pyran-4-yl)piperidin-4-yl)-1H-indol-2-yl)-7-methyl-7H-pyrrolo[2,3-d]pyrimidine], the IC50 against human TLR7 was less than 100 nM; against human TLR9 it was 1000 to 50000 nM; against human TLR8 it was less than 100 nM.
With `Cc1nnn2ccc(-c3[nH]c4ccc(C5CCN(Cc6ncn(C)n6)CC5)cc4c3C(C)C)cc12` [Example 889, 5-(3-isopropyl-5-(1-((1-methyl-1H-1,2,4-triazol-3-yl)methyl)piperidin-4-yl)-1H-indol-2-yl)-3-methyl-[1,2,3]triazolo[1,5-a]pyridine], the IC50 on human TLR7 was less than 100 nM; against human TLR9, 1000 to 50000 nM; on human TLR8, less than 100 nM.
With `Cc1ccnc2[nH]cc(-c3[nH]c4ccc(C5CCN(C(=O)CN(C)C)CC5)cc4c3C(C)C)c12` [Example 458, 2-(dimethylamino)-1-(4-(3-isopropyl-2-(4-methyl-1H-pyrrolo[2,3-b]pyridin-3-yl)-1H-indol-5-yl)piperidin-1-yl)ethan-1-one], the IC50 was less than 100 nM on human TLR7, 1000 to 50000 nM at human TLR9 and 100 to 1000 nM against human TLR8.
For `CC(C)c1c(-c2cc(N)nc3[nH]cnc23)[nH]c2ccc(C3CCNCC3)cc12` [Example 228, 7-(3-isopropyl-5-(piperidin-4-yl)-1H-indol-2-yl)-3H-imidazo[4,5-b]pyridin-5-amine], in that order: less than 100 nM, 100 to 1000 nM and less than 100 nM.
For `CNCC(=O)N1CCC(c2ccc3[nH]c(-c4cc(C)n5cncc5c4)c(C(C)C)c3c2)CC1` [Example 530, 1-(4-(3-isopropyl-2-(5-methylimidazo[1,5-a]pyridin-7-yl)-1H-indol-5-yl)piperidin-1-yl)-2-(methylamino)ethan-1-one], in that order: less than 100 nM, 100 to 1000 nM and less than 100 nM.
For `Cc1cc2ncnn2nc1-c1[nH]c2ccc(C3CCN(C4CCOCC4)CC3)cc2c1C(C)C` [Example 687, 6-(3-isopropyl-5-(1-(tetrahydro-2H-pyran-4-yl)piperidin-4-yl)-1H-indol-2-yl)-7-methyl-[1,2,4]triazolo[1,5-b]pyridazine], in that order: less than 100 nM, 1000 to 50000 nM and less than 100 nM.
Consider `CC(C)c1c(-c2ccnc3[nH]ncc23)[nH]c2cc(F)c(C3CCN(CC4CCN(C(C)C)CC4)CC3)cc12` [Example 966, 4-(6-fluoro-3-isopropyl-5-(1-((1-isopropylpiperidin-4-yl)methyl)piperidin-4-yl)-1H-indol-2-yl)-1H-pyrazolo[3,4-b]pyridine], for which the IC50 against human TLR7, against human TLR9 and at human TLR8 was less than 100 nM in each case.
